Measured values reported in patent publication US8124793B2, “Derivatives of ethylene methanedisulfonate as cancer chemotherapeutic agents” (priority 2007, dated 2012).

Legend:
Format in all cases: cell-based
[1] = test system: MDA-MB-435; assay: NCI screen, growth of human tumor cells: Breast Cancer MDA-MB-435; conditions: MDA-MB-435 (Breast Cancer), 10^−4 molar
Procedure, shortened: (§1)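 NCI screening: compound applied to tumor cell lines at a given molar concentration, growth measured as percent. Minimum 60 data points/compound; cancer type noted.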

[2] = test system: 786-0; assay: NCI screen, growth of human tumor cells: Renal Cancer 786-0; conditions: 786-0 (Renal Cancer), 10^−4 molar
Procedure, shortened: as §1

[3] = test system: HOP-62; assay: NCI screen, growth of human tumor cells: Non-Small Cell Lung HOP-62; conditions: HOP-62 (Non-Small Cell Lung), 10^−4 molar
Procedure, shortened: as §1

[4] = test system: HS 578T; assay: NCI screen, growth of human tumor cells: Breast Cancer HS 578T; conditions: HS 578T (Breast Cancer), 10^−4 molar
Procedure, shortened: as §1

[5] = test system: RXF-393; assay: NCI screen, growth of human tumor cells: Renal Cancer RXF-393; conditions: RXF-393 (Renal Cancer), 10^−4 molar
Procedure, shortened: as §1

[6] = test system: NCI-H226; assay: NCI screen, growth of human tumor cells: Non-Small Cell Lung NCI-H226; conditions: NCI-H226 (Non-Small Cell Lung), 10^−4 molar
Procedure, shortened: as §1

[7] = test system: MDA-MB-231/ATCC; assay: NCI screen, growth of human tumor cells: Breast Cancer MDA-MB-231/ATCC; conditions: MDA-MB-231/ATCC (Breast Cancer), 10^−4 molar
Description: (§2) In the NCI screening process, each compound was tested and described by a minimum of 60 data points. The test data include, but are not limited to the type of cancer, the molar concentration used in the screen, and the percent growth of the cancer. In some cases, NMR and elemental analysis were used for structural assignment.

[8] = test system: HT29; assay: NCI screen, growth of human tumor cells: Colon Cancer HT29; conditions: HT29 (Colon Cancer), 10^−4 molar
Procedure, shortened: as §1

[9] = test system: HCC-2998; assay: NCI screen, growth of human tumor cells: HCC-2998 (listed under Non-Small Cell Lung); conditions: HCC-2998, 10^−4 molar
Procedure, shortened: as §1

[10] = test system: OVCAR-3; assay: NCI screen, growth of human tumor cells: Ovarian Cancer OVCAR-3; conditions: OVCAR-3 (Ovarian Cancer), 10^−4 molar
Procedure, shortened: as §1

[11] = test system: NCI-H23; assay: NCI screen, growth of human tumor cells: Non-Small Cell Lung NCI-H23; conditions: NCI-H23, 10^−4 molar
Procedure, shortened: as §1

[12] = test system: NCI-H460; assay: NCI screen, growth of human tumor cells: Non-Small Cell Lung NCI-H460; conditions: NCI-H460 (Non-Small Cell Lung), 10^−4 molar
Procedure, shortened: as §1

[13] = test system: OVCAR-8; assay: NCI screen, growth of human tumor cells: Ovarian Cancer OVCAR-8; conditions: OVCAR-8 (Ovarian Cancer), 10^−4 molar
Description: as §2

[14] = test system: NCI-H322M; assay: NCI screen, growth of human tumor cells: Non-Small Cell Lung NCI-H322M; conditions: NCI-H322M (Non-Small Cell Lung), 10^−4 molar
Procedure, shortened: as §1

[15] = test system: HCT-116; assay: NCI screen, growth of human tumor cells: Colon Cancer HCT-116; conditions: HCT-116 (Colon Cancer), 10^−4 molar
Procedure, shortened: as §1

[16] = test system: SK-MEL-5; assay: NCI screen, growth of human tumor cells: Melanoma SK-MEL-5; conditions: SK-MEL-5 (Melanoma), 10^−4 molar
Procedure, shortened: as §1

[17] = test system: M14; assay: NCI screen, growth of human tumor cells: Melanoma M14; conditions: M14 (Melanoma), 10^−4 molar
Procedure, shortened: as §1

[18] = test system: UACC-62; assay: NCI screen, growth of human tumor cells: Melanoma UACC-62; conditions: UACC-62 (Melanoma), 10^−4 molar
Procedure, shortened: as §1

[19] = test system: NCI-H522; assay: NCI screen, growth of human tumor cells: Non-Small Cell Lung NCI-H522; conditions: NCI-H522, 10^−4 molar
Procedure, shortened: as §1

[20] = test system: SF-268; assay: NCI screen, growth of human tumor cells: CNS Cancer SF-268; conditions: SF-268 (CNS Cancer), 10^−4 molar
Procedure, shortened: as §1

[21] = test system: human cancer cells; assay: NCI screen summary over the cancers tested (negative growth of human cancer cells); conditions: 10^−4 M conc.; cancers with negative growth / cancers tested
Description: as §2
The derivatives in the tables are grouped using the same category as in the tables 1-6.

[22] = test system: ACHN; assay: NCI screen, growth of human tumor cells: Renal Cancer ACHN; conditions: ACHN (Renal Cancer), 10^−4 molar
Procedure, shortened: as §1

[23] = test system: DU-145; assay: NCI screen, growth of human tumor cells: Prostate Cancer DU-145; conditions: DU-145 (Prostate Cancer), 10^−4 molar
Procedure, shortened: as §1

[24] = test system: MOLT-4; assay: NCI screen, growth of human tumor cells: Leukemia MOLT-4; conditions: MOLT-4 (Leukemia), 10^−4 molar
Procedure, shortened: as §1

[25] = test system: EKVX; assay: NCI screen, growth of human tumor cells: Non-Small Cell Lung EKVX; conditions: EKVX, 10^−4 molar
Procedure, shortened: as §1

[26] = test system: SF-539; assay: NCI screen, growth of human tumor cells: CNS Cancer SF-539; conditions: SF-539 (CNS Cancer), 10^−4 molar
Procedure, shortened: as §1

[27] = test system: BT-549; assay: NCI screen, growth of human tumor cells: Breast Cancer BT-549; conditions: BT-549 (Breast Cancer), 10^−4 molar
Procedure, shortened: as §1

[28] = test system: CAKI-1; assay: NCI screen, growth of human tumor cells: Renal Cancer CAKI-1; conditions: CAKI-1 (Renal Cancer), 10^−4 molar
Procedure, shortened: as §1

[29] = test system: SW620; assay: NCI screen, growth of human tumor cells: Colon Cancer SW620; conditions: SW620 (Colon Cancer), 10^−4 molar
Description: as §2

[30] = test system: SNB-19; assay: NCI screen, growth of human tumor cells: CNS Cancer SNB-19; conditions: SNB-19 (CNS Cancer), 10^−4 molar
Procedure, shortened: as §1

[31] = test system: IGROVI; assay: NCI screen, growth of human tumor cells: Ovarian Cancer IGROVI; conditions: IGROVI (Ovarian Cancer), 10^−4 molar
Procedure, shortened: as §1

[32] = test system: SN12C; assay: NCI screen, growth of human tumor cells: Renal Cancer SN12C; conditions: SN12C (Renal Cancer), 10^−4 molar
Procedure, shortened: as §1

[33] = test system: MCF7/ADR-RES; assay: NCI screen, growth of human tumor cells: Breast Cancer MCF7/ADR-RES; conditions: MCF7/ADR-RES (Breast Cancer), 10^−4 molar
Procedure, shortened: as §1

[34] = test system: LOXIMVI; assay: NCI screen, growth of human tumor cells: Melanoma LOXIMVI; conditions: LOXIMVI (Melanoma), 10^−4 molar
Procedure, shortened: as §1

[35] = test system: SK-MEL-28; assay: NCI screen, growth of human tumor cells: Melanoma SK-MEL-28; conditions: SK-MEL-28 (Melanoma), 10^−4 molar
Procedure, shortened: as §1

[36] = test system: U-251; assay: NCI screen, growth of human tumor cells: CNS Cancer U-251; conditions: U-251 (CNS Cancer), 10^−4 molar
Procedure, shortened: as §1

[37] = test system: RPMI-8226; assay: NCI screen, growth of human tumor cells: Leukemia RPMI-8226; conditions: RPMI-8226 (Leukemia), 10^−4 molar
Procedure, shortened: as §1

[38] = test system: MDA-N; assay: NCI screen, growth of human tumor cells: Breast Cancer MDA-N; conditions: 10^−4 molar
Description: as §2

[39] = test system: UACC-257; assay: NCI screen, growth of human tumor cells: Melanoma UACC-257; conditions: UACC-257 (Melanoma), 10^−4 molar
Procedure, shortened: as §1

[40] = test system: HCT-15; assay: NCI screen, growth of human tumor cells: Colon Cancer HCT-15; conditions: HCT-15 (Colon Cancer), 10^−4 molar
Procedure, shortened: as §1

[41] = test system: MCF 7; assay: NCI screen, growth of human tumor cells: Breast Cancer MCF 7; conditions: MCF 7 (Breast Cancer), 10^−4 molar
Procedure, shortened: as §1

[42] = test system: OVCAR-5; assay: NCI screen, growth of human tumor cells: Ovarian Cancer OVCAR-5; conditions: OVCAR-5 (Ovarian Cancer), 10^−4 molar
Procedure, shortened: as §1

[43] = test system: OVCAR-4; assay: NCI screen, growth of human tumor cells: Ovarian Cancer OVCAR-4; conditions: OVCAR-4, 10^−4 molar
Procedure, shortened: as §1

CCOCC1(COCC)S(=O)(=O)OCCOS1(=O)=O [NSC 698120]
percent of growth of human tumor cells [1]: 1% | percent of growth of human tumor cells [2]: 15% | percent of growth of human tumor cells [3]: 23% | percent of growth of human tumor cells [4]: 15% | percent of growth of human tumor cells [5]: −36% | percent of growth of human tumor cells [6]: 0% | percent of growth of human tumor cells [7]: 18% | percent of growth of human tumor cells [8]: −3% | % Growth [9]: −92% | percent of growth of human tumor cells [10]: −13% | % Growth [11]: −72% | percent of growth of human tumor cells [12]: −38% | percent of growth of human tumor cells [13]: −43% | percent of growth of human tumor cells [14]: 20% | percent of growth of human tumor cells [15]: −6% | percent of growth of human tumor cells [16]: 25% | percent of growth of human tumor cells [17]: −36% | percent of growth of human tumor cells [18]: −36% | % Growth [19]: −83% | percent of growth of human tumor cells [20]: 21% | Percentage of cancers showing negative growth cancers tested [21]: 10^−4 M conc. = 22/42 = 52% | percent of growth of human tumor cells [22]: 18% | percent of growth of human tumor cells [23]: 24% | percent of growth of human tumor cells [24]: 23% | % Growth [25]: −99% | percent of growth of human tumor cells [26]: 20% | percent of growth of human tumor cells [27]: −4% | percent of growth of human tumor cells [28]: 7% | percent of growth of human tumor cells [29]: −3% | percent of growth of human tumor cells [30]: 14% | percent of growth of human tumor cells [31]: −28% | percent of growth of human tumor cells [32]: 24% | percent of growth of human tumor cells [33]: −26% | percent of growth of human tumor cells [34]: −25% | percent of growth of human tumor cells [35]: 12% | percent of growth of human tumor cells [36]: −47% | percent of growth of human tumor cells [37]: 10% | percent of growth of human tumor cells [38]: 3% | percent of growth of human tumor cells [39]: −14% | percent of growth of human tumor cells [40]: −27% | percent of growth of human tumor cells [41]: 27% | percent of growth of human tumor cells [42]: −28% | % Growth [43]: −88%
